Test results as given in US8524705B2, “2-oxo-2-(2-phenyl-5,6,7,8-tetrahydro-indolizin-3-yl)-acetamide derivatives and related compounds as antifungal agents” (F2G Limited British Body Corporate, priority 2007, dated 2013).
In brackets after ≈: the same amount, converted by molar mass.

Tests used:
Format in all cases: cell-based
Conditions in all cases: banded into grades
Aspergillus flavus = experiment: Measurement of Minimum Inhibitory Concentrations (MICs), A. flavus
Description: (§1) Between 1 and 5 mgs of compound were accurately weighed out into a sterile Eppendorf tube. The compound was dissolved in DMSO to give a solution containing 5 mg/mL. Tubes were stored at −20° C. until required. On the day of testing thawed solutions were vortex mixed to ensure homogeneity. 30 μL of solution was removed and added to 570 μL of sterile water in a separate sterile Eppendorf. The thoroughly mixed solution was used to prepare a series of doubling dilutions in water, in a deep well plate. […] replicate plates were prepared using a Minitrak by aspirating […] from each well into eleven clear polystyrene 96 well plates. Spores of Aspergillus spp. (Aspergillus fumigatus [two strains], Aspergillus terreus [two strains], Aspergillus niger and Aspergillus flavus) were harvested from cultures grown on Sabarauds agar for 5 days, and resuspended in PBS/Tween 80 to approx 1×10^7 cfu/mL. Each organism suspension was diluted in YAG medium (1% glucose, 1% ammonium chloride and 0.5% yeast extract) to 0.5-2×10^4 cfu/mL. 80 μL of an organism suspension was added to each well of the plate containing drug dilutions. This produced MIC plates with a drug range 50-0.05 mg/L and organism inocula of 1−2×10^4 cfu/mL for Aspergillus spp. All plates were incubated for 24 hrs at 35° C. Growth was assessed by monitoring the optical density at 485 nm for each well. The MIC of a compound is the lowest drug concentration that inhibits growth of an organism by >70% compared with a drug free control. MICs are recorded as mg/L. In cases where the MIC of an organism is >=0.05 mg/L the MIC is repeated using a concentration range of 0.5-0.0005 mg/L. Other growth media can be used for susceptibility testing, and the activity of the described compounds was also assessed in RPMI medium containing 2% glucose, and 0.135M MOPS buffer. MIC tests in YAG medium have more clear-cut endpoints and have slightly lower MICs than those performed in RPMI medium. The following organisms were tested: Aspergillus flavus, Aspergillus fumigatus AF293 and AF210, Aspergillus niger and Aspergillus terreus AT4 and AT49.

[1] = test system: Aspergillus fumigatus AF293; experiment: Measurement of Minimum Inhibitory Concentrations (MICs), A. fumigatus
Description: as §1

[2] = test system: Aspergillus fumigatus AF210; experiment: Measurement of Minimum Inhibitory Concentrations (MICs), A. fumigatus 210
Description: as §1

Aspergillus niger = experiment: Measurement of Minimum Inhibitory Concentrations (MICs), A. niger
Description: as §1

Aspergillus terreus AT4 = experiment: Measurement of Minimum Inhibitory Concentrations (MICs), A. terreus
Description: as §1

Aspergillus terreus AT49 = experiment: Measurement of Minimum Inhibitory Concentrations (MICs), A. terreus 49
Description: as §1

[3] = RPMI medium containing 2% glucose, 0.135M MOPS buffer
[4] = YAG medium, 24 hrs at 35° C., >70% growth inhibition

Structure (SMILES) | MIC (Aspergillus flavus; [3]) [µg/mL] | MIC (Aspergillus flavus; [4]) [µg/mL] | MIC [1, 3] [µg/mL] | MIC [1, 4] [µg/mL] | MIC [2, 3] [µg/mL] | MIC [2, 4] [µg/mL] | MIC (Aspergillus niger; [3]) [µg/mL] | MIC (Aspergillus niger; [4]) [µg/mL] | MIC (Aspergillus terreus AT4; [3]) [µg/mL] | MIC (Aspergillus terreus AT4; [4]) [µg/mL] | MIC (Aspergillus terreus AT49; [3]) [µg/mL] | MIC (Aspergillus terreus AT49; [4]) [µg/mL]
Cc1cc(C)nc(N2CCN(c3ccc(N(C)C(=O)C(=O)c4c(-c5ccccc5)cc5n4CCCC5)cc3)CC2)c1 [Example 6, N-{4-[4-(4,6-dimethyl-pyridin-2-yl)-piperazin-1-yl]-phenyl}-N-methyl-2-oxo-2-(2-phenyl-5,6,7,8-tetrahydro-indolizin-3-yl)-acetamide] | > 10 | > 10 | > 10 | 1 to 10 (≈ 1.83 to 18.3 µM) | > 10 | 1 to 10 (≈ 1.83 to 18.3 µM) | > 10 | > 10 | > 10 | > 10 | > 10 | 1 to 10 (≈ 1.83 to 18.3 µM)
Cc1cc(C)nc(N2CCN(c3ccc(NC(=O)C(=O)c4c(-c5ccccc5)cc5n4CCCC5)cc3COCCCN3CCN(C)CC3)CC2)c1 [Example 25, N-{4-[4-(4,6-Dimethyl-pyridin-2-yl)-piperazin-1-yl]-3-[3-(4-methyl-piperazin-1-yl)-propoxymethyl]-phenyl}-2-oxo-2-(2-phenyl-5,6,7,8-tetrahydro-indolizin-3-yl)-acetamide] | > 10 | > 10 | > 10 | > 10 | > 10 | > 10 | > 10 | > 10 | > 10 | > 10 | > 10 | > 10
COCc1cc(N2CCN(c3cc(C)cc(C)n3)CC2)ccc1NC(=O)C(=O)c1c(-c2ccccc2)cc2n1CCCC2 [Example 24, N-{4-[4-(4,6-Dimethyl-pyridin-2-yl)-piperazin-1-yl]-2-methoxymethyl-phenyl}-2-oxo-2-(2-phenyl-5,6,7,8-tetrahydro-indolizin-3-yl)-acetamide] | 1 to 10 (≈ 1.73 to 17.3 µM) | < 1 | 1 to 10 (≈ 1.73 to 17.3 µM) | < 1 | 1 to 10 (≈ 1.73 to 17.3 µM) | < 1 | 1 to 10 (≈ 1.73 to 17.3 µM) | < 1 | < 1 | < 1 | < 1 | < 1
O=C(NC1CCN(c2ccccc2)CC1)C(=O)c1c(-c2ccccc2)cc2n1CCCC2 [Example 12, 2-Oxo-N-(1-phenyl-piperidin-4-yl)-2-(2-phenyl-5,6,7,8-tetrahydro-indolizin-3-yl)-acetamide] | > 10 | > 10 | 1 to 10 (≈ 2.34 to 23.4 µM) | < 1 | 1 to 10 (≈ 2.34 to 23.4 µM) | < 1 | 1 to 10 (≈ 2.34 to 23.4 µM) | < 1 | 1 to 10 (≈ 2.34 to 23.4 µM) | < 1 | 1 to 10 (≈ 2.34 to 23.4 µM) | < 1
Cc1cc(OCCOc2ccc(NC(=O)C(=O)c3c(-c4ccccc4)cc4n3CCCC4)cc2)cc(C)n1 [Example 14, N-{4-[2-(2,6-Dimethyl-pyridin-4-yloxy)-ethoxy]-phenyl}-2-oxo-2-(2-phenyl-5,6,7,8-tetrahydro-indolizin-3-yl)-acetamide] | > 10 | 1 to 10 (≈ 1.96 to 19.6 µM) | 1 to 10 (≈ 1.96 to 19.6 µM) | 1 to 10 (≈ 1.96 to 19.6 µM) | 1 to 10 (≈ 1.96 to 19.6 µM) | 1 to 10 (≈ 1.96 to 19.6 µM) | 1 to 10 (≈ 1.96 to 19.6 µM) | 1 to 10 (≈ 1.96 to 19.6 µM) | < 1 | 1 to 10 (≈ 1.96 to 19.6 µM) | < 1 | < 1
Cc1cc(C)nc(N2CCN(c3ccc(NC(=O)C(=O)c4c(C5CCN(C)CC5)cc5n4CCCC5)cc3)CC2)c1 [Example 11, N-{4-[4-(4,6-Dimethyl-pyridin-2-yl)-piperazin-1-yl]-phenyl}-2-[2-(1-methyl-piperidin-4-yl)-5,6,7,8-tetrahydro-indolizin-3-yl]-2-oxo-acetamide] | > 10 | > 10 | > 10 | > 10 | > 10 | > 10 | > 10 | > 10 | > 10 | > 10 | > 10 | > 10

Results, then the molecule that gave them:

MIC (Aspergillus flavus; [3]) [µg/mL] | MIC (Aspergillus flavus; [4]) [µg/mL] | MIC [1, 3] [µg/mL] | MIC [1, 4] [µg/mL] | MIC [2, 3] [µg/mL] | MIC [2, 4] [µg/mL] | MIC (Aspergillus niger; [3]) [µg/mL] | MIC (Aspergillus niger; [4]) [µg/mL] | MIC (Aspergillus terreus AT4; [3]) [µg/mL] | MIC (Aspergillus terreus AT4; [4]) [µg/mL] | MIC (Aspergillus terreus AT49; [3]) [µg/mL] | MIC (Aspergillus terreus AT49; [4]) [µg/mL] | Structure (SMILES)
< 1 | < 1 | < 1 | < 1 | < 1 | < 1 | < 1 | < 1 | < 1 | < 1 | < 1 | < 1 | Cc1ccc(N2CCN(c3ccc(NC(=O)C(=O)c4c(-c5ccccc5)cc5n4CCCC5)cc3)CC2)nc1 [Example 16, N-{4-[4-(5-Methyl-pyridin-2-yl)-piperazin-1-yl]-phenyl}-2-oxo-2-(2-phenyl-5,6,7,8-tetrahydro-indolizin-3-yl)-acetamide]
< 1 | < 1 | < 1 | < 1 | < 1 | < 1 | < 1 | < 1 | < 1 | < 1 | < 1 | < 1 | Cc1cc(C)nc(N2CCN(c3ccc(NC(=O)C(=O)c4c(C5CCOCC5)cc5n4CCCC5)cc3)CC2)c1 [Example 10, N-{4-[4-(4,6-Dimethyl-pyridin-2-yl)-piperazin-1-yl]-phenyl}-2-oxo-2-[2-(tetrahydro-pyran-4-yl)-5,6,7,8-tetrahydro-indolizin-3-yl]-acetamide]
< 1 | < 1 | < 1 | < 1 | < 1 | < 1 | < 1 | < 1 | < 1 | < 1 | < 1 | < 1 | Cc1cc(C)nc(N2CCN(c3ccc(NC(=O)C(=O)c4c(-c5ccccc5)cc5n4CCCC5)c(C)c3)CC2)c1 [Example 20, N-{4-[4-(4,6-Dimethyl-pyridin-2-yl)-piperazin-1-yl]-2-methyl-phenyl}-2-oxo-2-(2-phenyl-5,6,7,8-tetrahydro-indolizin-3-yl)-acetamide]
< 1 | < 1 | < 1 | < 1 | < 1 | < 1 | < 1 | < 1 | < 1 | < 1 | < 1 | < 1 | Cc1cc(C)nc(N2CCN(c3ccc(NC(=O)C(=O)c4c(-c5ccccc5)cc5n4CCCC5)c(Cl)c3)CC2)c1 [Example 30, N-{2-Chloro-4-[4-(4,6-dimethyl-pyridin-2-yl)-piperazin-1-yl]-phenyl}-2-oxo-2-(2-phenyl-5,6,7,8-tetrahydro-indolizin-3-yl)-acetamide]
< 1 | < 1 | < 1 | < 1 | < 1 | < 1 | < 1 | < 1 | < 1 | < 1 | < 1 | < 1 | Cc1cc(C)nc(N2CCN(c3ccc(NC(=O)C(=O)c4c(-c5ccccc5)cc5n4CCCC5)cc3C)CC2)c1 [Example 22, N-{4-[4-(4,6-Dimethyl-pyridin-2-yl)-piperazin-1-yl]-3-methyl-phenyl}-2-oxo-2-(2-phenyl-5,6,7,8-tetrahydro-indolizin-3-yl)-acetamide]
< 1 | < 1 | < 1 | < 1 | < 1 | < 1 | < 1 | < 1 | < 1 | < 1 | < 1 | < 1 | Cc1cc(C)nc(N2CCN(c3ccc(NC(=O)C(=O)c4c(C5CCCC5)cc5n4CCCC5)cc3)CC2)c1 [Example 4, 2-(2-cyclopentyl-5,6,7,8-tetrahydro-indolizin-3-yl)-N-{4-[4-(4,6-dimethyl-pyridin-2-yl)-piperazin-1-yl]-phenyl}-2-oxo-acetamide]
